Assay results published in PubChem BioAssay (NCI).
Values joined by “and” are separate entries in the source; they are usually repeats but may differ in a detail not shown here. Equal values may be shown once.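 The compound was tested at five concentrations on cells cultured in 96-well plates, with a 48-hour exposure period. GI50: concentration for 50% inhibition of growth. TGI denotes the concentration required for complete inhibition of growth.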

Assays:
Assay in all cases: DTP human tumour cell line panel, 48 h
HL-60(TB) leukemia = tested on: HL-60(TB) leukemia
TK-10 renal = tested on: TK-10 renal
HCT-116 colon = tested on: HCT-116 colon
SK-MEL-28 melanoma = tested on: SK-MEL-28 melanoma
SK-OV-3 ovarian = tested on: SK-OV-3 ovarian
KM12 colon = tested on: KM12 colon
COLO 205 colon = tested on: COLO 205 colon
HT29 colon = tested on: HT29 colon
SR leukemia = tested on: SR leukemia

Row | SMILES | TGI (HL-60(TB) leukemia) [µM] | TGI (TK-10 renal) | TGI (HCT-116 colon) [µM] | TGI (SK-MEL-28 melanoma) [µM] | TGI (SK-OV-3 ovarian) | TGI (KM12 colon) [µM] | TGI (COLO 205 colon) [µM] | TGI (HT29 colon) [µM] | TGI (SR leukemia) [µM] | GI50 (HL-60(TB) leukemia) [µM] | GI50 (COLO 205 colon) [µM] | GI50 (TK-10 renal) [µM] | GI50 (HT29 colon) [µM] | GI50 (HCT-116 colon) [µM] | GI50 (SK-MEL-28 melanoma) [µM] | GI50 (SK-OV-3 ovarian) | GI50 (KM12 colon) [µM]
1 | OCc1c[te]c(-c2ccccc2)c1 | 45.1 | > 100 µM | 33.3 | > 100 | > 100 µM | > 100 | – | – | – | – | – | – | – | – | – | – | –
2 | Cc1ccc(NC(=O)/C(Cl)=C(/Cl)C(=O)O)cc1 | 4.36 | 33 µM | 28.2 | 33 | 35.8 µM | 34.6 | 20.3 | 35 | 53.6 | – | – | – | – | – | – | – | –
3 | CC(=O)[CH-]C(=O)c1ccccc1.CC(=O)[CH-]C(=O)c1ccccc1.C[C@]12CCC(=O)C=C1CC[C@@H]1C2CC[C@@]2(C)C1CC[C@@H]2[O-].C[C@]12CCC(=O)C=C1CC[C@@H]1C2CC[C@@]2(C)C1CC[C@@H]2[O-].Cl.[Ti+4] (some centres undefined) | 69.1 | > 100 µM | > 100 | > 100 | 56.9 µM | 66.2 | > 100 | 37.2 | – | 8.82 | 37 | 29.4 | 17.5 | 27.6 | 32.9 | 27 µM | 20.3
4 | COc1cc(/C=C2\C[C@H]3[C@@H]4CC=C5C[C@@H](O)CC[C@]5(C)[C@H]4CC[C@]3(C)[C@H]2O)ccc1OCCCn1ccnc1 | 15.9 | 2.09 µM | – | > 50 | – | 7.2 | > 50 | > 50 | – | 2.79 | 8.74 | 0.738 | 2.68 | – | 10.2 | – | 1.82
5 | NCCNCc1c2ccccc2c(CNCCN)c2ccccc12 | 58.6 | > 100 µM | 48.3 | – | – | 62.6 | > 100 | > 100 | > 100 | – | – | – | – | – | – | – | –
6 | COc1ccc(C(=O)C(c2ccc(OCc3ccccc3)cc2)c2ccc(OCc3ccccc3)cc2)cc1 | > 100 | > 100 µM | > 100 | > 100 | > 100 µM | > 100 | > 100 | > 100 | > 100 | – | – | – | – | – | – | – | –
7 | OCCN1CCN2C=C(C3CCCC4N(CCO)CCN34)CCC21 (centres undefined) | 24 | > 100 µM | > 87.2 | > 100 | > 100 µM | > 100 | > 100 | > 100 | 26.3 | – | – | – | – | – | – | – | –
8 | COc1ccc(C2C(C)C(=O)C(C)C(c3ccc(OC)cc3)N2N=O)cc1 (centres undefined) | > 1000 | 488 µM and 245 µM | 455 | > 1000 | > 82.5 µM and 626 µM and 980 µM | > 1000 | > 750 | > 1000 | > 1000 | > 750 | > 750 | 147 | – | – | > 750 | > 47.5 µM and 220 µM | –
9 | CC#CC1C2CCCC1(CSc1ccccc1)NC(=O)O2 (centres undefined) | > 100 | > 100 µM | > 100 | – | > 100 µM | > 100 | > 100 | > 100 | > 100 | – | – | – | – | – | – | – | –
10 | c1ccc2c(c1)N=C(c1cccc3ccccc13)CC(c1ccc3c(c1)OCO3)S2 (centres undefined) | > 100 | > 100 µM | > 100 | – | > 100 µM | > 100 | > 100 | > 100 | > 100 | – | – | – | – | – | – | – | –
11 | CCNC(=O)O/N=C1\CCC2[C@@H]3CC=C4C[C@@H](OC5CCCCO5)CC[C@]4(C)C3CC[C@]12C (some centres undefined) | – | 3.81 µM | > 100 | 10.8 | 17.3 µM | 17 | – | 13.3 | – | – | – | – | – | – | – | – | –
12 | C=C(C(=C)P(=S)(c1ccccc1)c1ccccc1)P(=S)(c1ccccc1)c1ccccc1 | > 100 | > 100 µM | > 100 | > 100 | > 100 µM | > 100 | > 100 | > 100 | – | – | – | – | – | – | – | – | –
13 | O=C1CCSC2=C1SCc1sccc12 | > 100 | > 100 µM | – | > 100 | > 100 µM | > 100 | > 100 | – | – | – | – | – | – | – | – | – | –
14 | COc1ccccc1NC(=O)c1nc2ccc([N+](=O)[O-])cc2nc1C | – | > 100 µM | > 100 | > 100 | > 100 µM | > 100 | > 100 | > 100 | – | – | – | – | – | – | – | – | –
15 | CC1=CC(N2C(=O)C(C)=CC2O)NC1=O (centres undefined) | > 100 | > 100 µM | > 100 | > 100 | – | > 100 | > 100 | > 100 | > 100 | – | – | – | – | – | – | – | –
16 | COC(=O)C1=C(C(=O)OC)C2(C)Nc3ccccc3C2=C(c2ccccc2)C1 (centres undefined) | 41.5 | 69.9 µM | 44 | 40.7 | – | 30.3 | 34 | 70.6 | – | – | – | – | – | – | – | – | –
17 | CN1CCN(C)C12C=CC=CC21CC1 | > 100 | > 100 µM | > 100 | – | > 100 µM | > 100 | > 100 | > 100 | > 100 | – | – | – | – | – | – | – | –
18 | c1ccc2cc(C[n+]3ccn(CCCCCCCCCCn4cc[n+](Cc5ccc6ccccc6c5)c4)c3)ccc2c1 | 2.97 | 16.9 µM | 15.1 | 5.66 | 6.39 µM | 2.73 | 1.68 | 4.74 | – | 1.25 | 0.411 | 3.28 | 0.715 | 1.55 | 1.3 | 1.36 µM | 0.727
